Columns and labels:
P-gp (MDR1) = test: MDCK-MDR1 assay (permeability, efflux ratio); format: in vitro ADME; details: dog, Papp BA/Papp AB
Description: The permeability of the test compounds was assessed in MDCK-MDR1 cells that were cultured to confluency (4-6 days) in a 96 transwell plate. Test compounds were diluted with the transport buffer (HBSS+1% BSA) to a concentration of 0.5 μM and applied to the apical or basolateral side of the cell monolayer. Permeation of the test compounds from A to B direction or B to A direction was determined in triplicate over a 60-minute incubation time at 37° C. and 5% CO2 with a relative humidity of 95%. Test compounds were quantified by LC-MS/MS analysis based on the peaks area ratios of analyte/IS in both the receiver and donor wells of the transwell plate.
The apparent permeability coefficient Papp (cm/s) was calculated using the equation: […]
Where dCr/dt is the cumulative concentration of compound in the receiver chamber as a function of time (μM/s); Vr is the solution volume in the receiver chamber (0.05 mL on the apical side; 0.25 mL on the basolateral side); A is the surface area for the transport, i.e. 0.0804 cm^2 for the area of the monolayer; CO is the initial concentration in the donor chamber (μM).
Compounds are classified Pgp substrates when efflux ratio (Papp BA/Papp AB) is ≥2.

BACE1 = BACE1 (Homo sapiens, UniProt P56817); test: BACE1 binding assay (SPA-based); design: biotin (biotinylated form); made in house; host or cells: Freestyle HEK293 cells; details: pH 4.5, 10 nM radioligand
Sequence of BACE1 (P56817 46-501): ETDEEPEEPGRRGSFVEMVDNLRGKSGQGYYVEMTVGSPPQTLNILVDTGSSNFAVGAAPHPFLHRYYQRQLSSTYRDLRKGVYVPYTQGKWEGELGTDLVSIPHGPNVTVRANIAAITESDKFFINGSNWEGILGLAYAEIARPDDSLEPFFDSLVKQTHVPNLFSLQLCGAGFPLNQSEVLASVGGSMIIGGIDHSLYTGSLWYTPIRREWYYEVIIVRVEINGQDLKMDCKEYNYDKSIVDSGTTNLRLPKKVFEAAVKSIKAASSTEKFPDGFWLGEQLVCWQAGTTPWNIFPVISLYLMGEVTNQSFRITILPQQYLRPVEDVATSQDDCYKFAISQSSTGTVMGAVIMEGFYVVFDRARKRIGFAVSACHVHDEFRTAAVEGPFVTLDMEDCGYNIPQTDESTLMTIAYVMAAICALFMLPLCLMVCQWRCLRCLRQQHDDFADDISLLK
Description: The binding assay was performed as SPA-based assay using a biotinylated form of human BACE1 recombinantly expressed and subsequently purified from Freestyle HEK293 cells. The binding assay was run in a 50 mM sodium acetate buffer, pH 4.5 containing 50 mM NaCl and 0.03% Tween-20 in white clear bottom 384 plates (Corning #3653). […] The plates were incubated for one hour at room temperature and counted in a Wallac Trilux counter. Total and non-specific binding were determined using buffer and 1 μM (final concentration) of the high affinity BACE1 reference inhibitor (S)-6-[3-chloro-5-(5-prop-1-ynyl-pyridin-3-yl)-thiophen-2-yl]-2-imino-3,6-dimethyl-tetrahydro-pyrimidin-4-one, respectively. For each test compound, a IC50 value (the concentration mediating 50% inhibition of the specific binding of the radioligand) was determined from concentration-response curve and used to calculate the Ki from the equation Ki=IC50/(1+L/Kd), where L and Kd are the final concentration of the radioligand used in the assay and the dissociation constant of the radioligand, respectively. The Kd of the radioligand was determined from saturation binding experiments.

[1] = Clearance in microsomes, human; format: in vitro ADME; details: 1 microM, read-out: CLint, Human (L/h/kg) ± SD (converted)
Excerpt: (§1) Deuterated compounds were compared to their non-deuterated parent counterparts to determine the impact of deuteration on clearance results

[2] = Clearance in hepatocytes, human; format: in vitro ADME; details: read-out: CLint, Human (L/h/kg) ± SD (converted)
Excerpt: as §1

- efflux ratio at 60 min, 0.5 μM (P-gp (MDR1)): 1.39
- Ki (BACE1): 17 nM
- CLint scaled at 1 µM [1]: 0.2 L/h/kg
- CLint scaled at 0.1 µM ([2]; 0.1 microM): < 0.1 L/h/kg
- CLint scaled at 0.3 µM ([2]; 0.3 microM): < 0.1 L/h/kg
- CLint scaled at 1 µM ([2]; 1 microM): < 0.1 L/h/kg
Compound: [2H]C([2H])([2H])Oc1cnc(C(=O)Nc2ccc(F)c([C@]3(C)CC[C@@](F)(CF)C(N)=N3)c2)cn1 [Example 1, N-(3-((2S,5S)-6-amino-5-fluoro-5-(fluoromethyl)-2-methyl-2,3,4,5-tetrahydropyridin-2-yl)-4-fluorophenyl)-5-(methoxy-d3)pyrazine-2-carboxamide]

— patent US20180186769A1, “6-AMINO-5-FLUORO-5-(FLUOROMETHYL)-2,3,4,5-TETRAHYDROPYRIDIN-2-YL-PHENYL-5-(METHOXY-D3)-PYRAZINE-2-CARBOXAMIDES AND FLUORINATED DERIVATIVES THEREOF AS BACE1 INHIBITORS” (H. Lundbeck A/S, priority 2016, published 2018)
